Reference: publication PMC7913927, “Leishmanicidal Activity of Betulin Derivatives in Leishmania amazonensis; Effect on Plasma and Mitochondrial Membrane Potential, and Macrophage Nitric Oxide and Superoxide Production” (Microorganisms, 2021)
“Also recorded” adds a separate entry of the source.

Key:
[1] = test system: L. (L.) amazonensis LTB0016, VE98MR and VE2000MM promastigotes; assay: Plasma membrane potential (ΔΨp), bisoxonol fluorescence; assay type: cell-based, Leishmania amazonensis; details: promastigotes of LTB0016, VE98MR, VE2000MM; 15 min; 18: 1 and 2 µM; vs untreated
Description: To evaluate the plasma membrane potential (ΔΨp), the fluorescent compound, bisoxonol, bis[1,3-diethylthiobarbituric acid] trimethine oxonol, was used, as well as a method optimized by Padrón-Nieves et al.. Initially, calibration curves for each strain, using increasing concentrations of KCl (0.5 to 75 mM), were performed in the late log growth phase Leishmania promastigotes in the presence of the potassium ionophore valinomycin. By this procedure, fluorescence values could be transformed into millivolts (mV), applying the Nernst equation, ΔΨp = −59.4 log(120/[KCl]). […] After 10 min of incubation in the dark, fluorescence was measured in a Victor^2 Wallac spectrofluorometer (Perkin Elmer, Turku, Finland), using the appropriate wavelengths (ex: 540 nm/em: 580 nm). […] Once the corresponding calibration curve for each strain was obtained, the effect of compounds on the ΔΨp was evaluated. […] After 10 min of incubation in the dark, fluorescence was measured, using the appropriate wavelengths (ex: 540 nm/em: 580 nm). […] To transform the fluorescence values in millivolts (mV), calibration curves were prepared using increasing concentrations of KCl (0.5, 1.15, 2.5, 5, 10, 20, 40, and 75 mM). […]

[2] = test system: L. (L.) amazonensis LTB0016, VE98MR and VE2000MM promastigotes; assay: Mitochondrial membrane potential (ΔΨm), JC-1 fluorescence; assay type: cell-based, Leishmania amazonensis; details: promastigotes of LTB0016, VE98MR, 48 h, 18: 1 and 2 µM, 22: 2 and 4 µM, vs untreated
Description: To evaluate the mitochondrial membrane potential (ΔΨm), the fluorescent compound JC-1 (5,5′,6,6′-tetrachloro-1,1′,3,3′-tetraethylbenzimidazolocarbocyanine iodide) was used, according to a modification of a previously described method. Exponential phase promastigotes were suspended at 26 °C, in RPMIc without phenol red, in a volume of 1 mL, at a cell density of 1 × 10^7 parasites mL^−1. The parasites were left to grow for 48 h, in the presence and absence of the test compounds. Then, after centrifuging (500× g for 10 min) and washing the parasites twice with PBS, they were resuspended in 200 µL of HEPES-G, and placed in 96-well plates. […] Finally, fluorescence was measured in a Victor^2 Wallac spectrofluorometer (Perkin Elmer, Turku, Finland) at the appropriate wavelengths (ex: 485 nm/em: 535 and 580 nm). As the mitochondrial membrane is polarized, JC-1 produces intra-mitochondrial aggregates “J-aggregates” that emit a red fluorescence (λ 590 nm). Mitochondrial membrane depolarization induces JC-1 monomeric conformation in the cytoplasm, then the fluorescence turns green (λ 530 nm). The red/green ratio of fluorescence then is an indirect measurement of the mitochondrial membrane potential. A more depolarized mitochondria means a lower ratio of red/green fluorescence.
Relative fluorescence (RF) was calculated, where RF = 580 nm fluorescence/535 nm fluorescence (red/green). […]

C=C(C)C1CCC2(C=NO)CCC3(C)C(CCC4C5(C)CCC(=NO)C(C)(C)C5CCC43C)C12 (centres unmarked) [Compound 18]
Effect on plasma membrane potential (ΔΨp) [1]: significantly depolarized; also recorded: significantly depolarize the ΔΨp in all evaluated strains; also recorded: the collapse of the plasma membrane potential (ΔΨp) in a concentration-dependent way
Effect on mitochondrial membrane potential (ΔΨm) [2]: significantly depolarized; also recorded: depolarizes ΔΨm in a concentration-dependent way
